Where two headings read alike, the source gives them in different places. Numbered stars: 1 amine (or outer) side, 2 acyl side, 3 side chain; on linkers, the order of the positions; unused ones are H or OH. Bridge positions count the residues as written; N and C are the ends. Square brackets hold non-standard residues; d marks the D form. * marks the point of attachment. C20 diacid = O=C(O)CCCCCCCCCCCCCCCCCCC(=O)*; γGlu = O=C(O)[C@H](CCC(=O)[*:2])N[*:1]; 4Pal = N[C@@H](Cc1ccncc1)C(=O)O; AEEA = NCCOCCOCC(=O)O; CH2 = C([*:1])[*:2]; βAla = NCCC(=O)O

One assay addresses T1, human NPRA (Homo sapiens, UniProt P16066).
T1 construct: Full-Length cDNA Cloning and Generation of Cell Lines Overexpressing Natriuretic Peptide Receptors (NPRs); expressed in transfected cells; host or cells: Jump-in T-Rex HEK293 cells, pJTI R4 CMV-TO MCS pA vector, tetracycline induction
T1 sequence (P16066 33-1061): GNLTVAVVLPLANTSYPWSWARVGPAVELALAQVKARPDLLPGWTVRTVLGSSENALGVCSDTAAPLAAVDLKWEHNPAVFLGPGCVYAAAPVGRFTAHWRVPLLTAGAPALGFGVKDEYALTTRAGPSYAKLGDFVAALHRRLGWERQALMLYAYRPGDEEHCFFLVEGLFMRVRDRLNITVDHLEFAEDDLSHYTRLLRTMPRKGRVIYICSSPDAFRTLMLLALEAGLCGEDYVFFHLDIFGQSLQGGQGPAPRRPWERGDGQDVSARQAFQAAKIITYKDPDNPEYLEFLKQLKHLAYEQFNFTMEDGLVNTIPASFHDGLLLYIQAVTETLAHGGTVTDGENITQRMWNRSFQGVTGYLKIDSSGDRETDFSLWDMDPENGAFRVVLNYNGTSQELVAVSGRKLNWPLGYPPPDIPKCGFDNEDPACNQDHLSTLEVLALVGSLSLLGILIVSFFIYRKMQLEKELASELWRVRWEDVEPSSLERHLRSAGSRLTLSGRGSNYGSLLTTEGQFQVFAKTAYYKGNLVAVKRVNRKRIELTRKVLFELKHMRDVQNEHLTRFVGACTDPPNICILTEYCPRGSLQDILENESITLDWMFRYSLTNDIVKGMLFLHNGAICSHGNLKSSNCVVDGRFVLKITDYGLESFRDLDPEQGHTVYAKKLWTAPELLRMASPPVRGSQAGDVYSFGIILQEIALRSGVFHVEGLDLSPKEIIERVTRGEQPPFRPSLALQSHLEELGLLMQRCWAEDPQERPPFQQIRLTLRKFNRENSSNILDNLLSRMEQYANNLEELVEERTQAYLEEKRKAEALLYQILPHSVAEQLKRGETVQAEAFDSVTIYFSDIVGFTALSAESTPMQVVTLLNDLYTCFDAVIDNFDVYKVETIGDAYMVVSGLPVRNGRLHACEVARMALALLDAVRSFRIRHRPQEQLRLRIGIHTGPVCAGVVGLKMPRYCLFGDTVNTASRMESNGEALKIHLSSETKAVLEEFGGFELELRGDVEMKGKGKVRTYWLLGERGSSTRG
As to the kind of experiment: Human NPRA cGMP activity assay (HTRF) in HEK293 cells overexpressing NPRA. The settings on record: assay buffer with 0.1% casein. It is filed as cell-based. The method in brief:
(§1)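 cGMP measured by HTRF and scaled between buffer (minimum) and 100 nM amidated rat ANP (maximum). Polypeptides in 10-fold steps from 10 μM to 1 pM, 0.5% DMSO, 0.5 mM IBMX, 40 min at room temperature, on induced NPRA-overexpressing HEK293 cells.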
On the technique in general: Time-resolved FRET reads energy transfer from a long-lived donor to a nearby acceptor.

The target of the next assay is T2, rat NPRA (Rattus norvegicus, UniProt P18910).
T2 construct: Full-Length cDNA Cloning and Generation of Cell Lines Overexpressing Natriuretic Peptide Receptors (NPRs); expressed in transfected cells; host or cells: Jump-in T-Rex HEK293 cells, pJTI R4 CMV-TO MCS pA vector, tetracycline induction
T2 sequence (P18910 29-1057): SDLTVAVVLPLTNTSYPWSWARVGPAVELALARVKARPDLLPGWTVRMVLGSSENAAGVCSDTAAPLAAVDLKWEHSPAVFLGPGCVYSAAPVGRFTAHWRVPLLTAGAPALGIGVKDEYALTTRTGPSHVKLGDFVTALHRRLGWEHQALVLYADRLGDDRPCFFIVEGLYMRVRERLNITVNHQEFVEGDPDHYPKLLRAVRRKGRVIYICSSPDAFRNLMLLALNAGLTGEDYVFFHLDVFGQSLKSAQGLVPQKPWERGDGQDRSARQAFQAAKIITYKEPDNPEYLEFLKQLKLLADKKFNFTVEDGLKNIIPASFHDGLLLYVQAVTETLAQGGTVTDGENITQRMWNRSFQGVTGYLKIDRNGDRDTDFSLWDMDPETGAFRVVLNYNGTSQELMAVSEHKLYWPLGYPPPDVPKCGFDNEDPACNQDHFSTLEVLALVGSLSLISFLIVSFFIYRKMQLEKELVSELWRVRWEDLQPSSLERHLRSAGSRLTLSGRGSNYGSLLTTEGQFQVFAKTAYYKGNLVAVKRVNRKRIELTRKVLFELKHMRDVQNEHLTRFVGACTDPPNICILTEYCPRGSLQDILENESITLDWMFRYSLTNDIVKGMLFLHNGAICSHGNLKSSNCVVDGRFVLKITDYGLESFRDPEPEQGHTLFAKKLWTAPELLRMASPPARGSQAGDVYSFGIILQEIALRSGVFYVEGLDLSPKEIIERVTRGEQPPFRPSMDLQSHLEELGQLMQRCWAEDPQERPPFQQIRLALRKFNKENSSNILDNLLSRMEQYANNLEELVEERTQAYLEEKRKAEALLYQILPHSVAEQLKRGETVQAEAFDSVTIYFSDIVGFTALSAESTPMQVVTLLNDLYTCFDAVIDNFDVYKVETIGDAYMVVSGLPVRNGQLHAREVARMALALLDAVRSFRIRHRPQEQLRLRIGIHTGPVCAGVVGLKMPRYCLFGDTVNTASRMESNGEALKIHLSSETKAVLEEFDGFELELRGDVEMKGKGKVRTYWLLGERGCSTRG
Nature of the assay: Rat NPRA cGMP activity assay (HTRF) in HEK293 cells overexpressing NPRA. It is filed as cell-based. Summed up: as §1

Where [1] appears, read: read-out: cGMP Assay (EC50, pM) w/Casein hNPRA.
Where [2] appears, read: assay buffer with 0.1% BSA, read-out: cGMP Assay (EC50, pM) w/BSA rNPRA.
The mark [3] stands for this setting: cGMP Assay (EC50, pM) w/Casein hNPRA.
Setting [4] is: assay buffer with 0.1% casein, read-out: cGMP Assay (EC50, pM) w/Casein rNPRA.

As to `CC[C@H](C)[C@@H]1NC(=O)[C@H](CCCNC(=N)N)NC(=O)[C@H](CC(=O)O)NC(=O)[C@H]([C@@H](C)CC)NC(=O)[C@H](CCCNC(=N)N)NC(=O)CNC(=O)CNC(=O)[C@H](Cc2ccccc2)NC(=O)[C@@H](NC(=O)[C@H](CO)NC(=O)[C@H](CO)NC(=O)[C@H](CCCNC(=N)N)NC(=O)[C@H](CCCNC(=N)N)NC(=O)[C@H](Cc2ccncc2)NC(=O)[C@H](CO)NC(=O)CNC(=O)[C@H](CCCCN)NC(=O)[C@H](CCC(=O)O)NC(=O)[C@H](CCCCN)NC(=O)[C@H](CCC(=O)O)NC(=O)[C@H](CCCCN)NC(=O)[C@H](CCC(=O)O)NC(=O)CC[C@H](NC(=O)CCCCCCCCCCCCCCCCCCC(=O)O)C(=O)O)CSSC[C@@H](C(=O)N[C@@H](CC(N)=O)C(=O)N[C@@H](CO)C(=O)N[C@@H](Cc2ccccc2)C(=O)N[C@@H](CCCNC(=N)N)C(=O)N[C@@H](Cc2ccc(O)cc2)C(N)=O)NC(=O)CNC(=O)[C@H](CC(C)C)NC(=O)CNC(=O)[C@H](CO)NC(=O)[C@H](CCC(N)=O)NC(=O)[C@H](C)NC(=O)CNC1=O` [Example 11], the EC50 was determined as 1020 pM on human NPRA (setting [1]) and 24700 pM on rat NPRA (setting [2]).

In the case of `CC[C@H](C)[C@@H]1NC(=O)[C@H](CCCNC(=N)N)NC(=O)[C@H](CC(=O)O)NC(=O)[C@H]([C@@H](C)CC)NC(=O)[C@H](CCCNC(=N)N)NC(=O)[C@H](CCCCN)NC(=O)CNC(=O)[C@H](Cc2ccccc2)NC(=O)[C@@H](NC(=O)[C@H](CO)NC(=O)[C@H](CO)NC(=O)[C@H](CCCNC(=N)N)NC(=O)[C@H](CCCNC(=N)N)NC(=O)[C@H](Cc2ccncc2)NC(=O)[C@H](CO)NC(=O)COCCOCCNC(=O)COCCOCCNC(=O)COCCOCCNC(=O)COCCOCCNC(=O)COCCOCCNC(=O)COCCOCCNC(=O)COCCOCCNC(=O)COCCOCCNC(=O)CNC(=O)[C@H](CCCCN)NC(=O)[C@H](CCC(=O)O)NC(=O)[C@H](CCCCN)NC(=O)[C@H](CCC(=O)O)NC(=O)[C@H](CCCCN)NC(=O)[C@H](CCC(=O)O)NC(=O)CC[C@H](NC(=O)CCCCCCCCCCCCCCCCCCC(=O)O)C(=O)O)CSCSC[C@@H](C(=O)N2CCC[C@H]2C(=O)N[C@@H](CO)C(=O)N[C@@H](Cc2ccccc2)C(=O)N[C@@H](CCCNC(=N)N)C(=O)N[C@@H](Cc2c[nH]cn2)C(=O)NCC(=O)NCC(=O)N[C@@H](CCCCN)C(=O)N[C@@H](CO)C(=O)N[C@@H](CO)C(=O)NCC(=O)N[C@@H](C)C(=O)N2CCC[C@H]2C(=O)N2CCC[C@H]2C(=O)N2CCC[C@H]2C(=O)N[C@@H](CO)C(N)=O)NC(=O)CNC(=O)[C@H](CC(C)C)NC(=O)CNC(=O)[C@H](CO)NC(=O)[C@H](CCC(N)=O)NC(=O)[C@H](Cc2c[nH]cn2)NC(=O)CNC1=O` [Example 87], the EC50 at human NPRA (setting [1]) is 621 pM; on rat NPRA (setting [2]), 463000 pM.

On to `CC[C@H](C)[C@@H]1NC(=O)[C@H](CCCNC(=N)N)NC(=O)[C@H](CC(=O)O)NC(=O)[C@H]([C@@H](C)CC)NC(=O)[C@H](CCCNC(=N)N)NC(=O)CNC(=O)CNC(=O)[C@H](Cc2ccccc2)NC(=O)[C@@H](NC(=O)[C@H](CO)NC(=O)[C@H](CO)NC(=O)[C@H](CCCNC(=N)N)NC(=O)[C@H](CCCNC(=N)N)NC(=O)[C@H](Cc2ccncc2)NC(=O)[C@H](CO)NC(=O)COCCOCCNC(=O)COCCOCCNC(=O)COCCOCCNC(=O)COCCOCCNC(=O)COCCOCCNC(=O)COCCOCCNC(=O)CNC(=O)[C@H](CCCCN)NC(=O)[C@H](CCC(=O)O)NC(=O)[C@H](CCCCN)NC(=O)[C@H](CCC(=O)O)NC(=O)[C@H](CCCCN)NC(=O)[C@H](CCC(=O)O)NC(=O)CC[C@H](NC(=O)CCCCCCCCCCCCCCCCCCC(=O)O)C(=O)O)CSCSC[C@@H](C(=O)N2CCC[C@H]2C(=O)N[C@@H](CO)C(=O)N[C@@H](Cc2ccccc2)C(=O)N[C@@H](CCCNC(=N)N)C(=O)N[C@@H](Cc2c[nH]cn2)C(=O)NCC(=O)N[C@@H](CO)C(=O)N2CCC[C@H]2C(=O)N[C@@H](CO)C(=O)N[C@@H](CO)C(=O)NCC(=O)N[C@@H](C)C(=O)N2CCC[C@H]2C(=O)N2CCC[C@H]2C(=O)N2CCC[C@H]2C(=O)N[C@@H](CO)C(N)=O)NC(=O)CNC(=O)[C@H](CC(C)C)NC(=O)CNC(=O)[C@H](CO)NC(=O)[C@H](Cc2ccc(O)cc2)NC(=O)[C@H](Cc2c[nH]cn2)NC(=O)CNC1=O` [Example 96], for which the EC50 came out at 720 pM at human NPRA (setting [3]) and 12200 pM on rat NPRA (cGMP Assay (EC50, pM) w/Casein rNPRA, assay buffer with 0.1% casein).

Take `CC[C@H](C)[C@@H]1NC(=O)[C@H](CCCNC(=N)N)NC(=O)[C@H](CC(=O)O)NC(=O)[C@H]([C@@H](C)CC)NC(=O)[C@H](CCCNC(=N)N)NC(=O)[C@H](CCCCN)NC(=O)CNC(=O)[C@H](Cc2ccccc2)NC(=O)[C@@H](NC(=O)[C@H](CO)NC(=O)[C@H](CO)NC(=O)[C@H](CCCNC(=N)N)NC(=O)[C@H](CCCNC(=N)N)NC(=O)[C@H](Cc2ccncc2)NC(=O)[C@H](CO)NC(=O)COCCOCCNC(=O)COCCOCCNC(=O)COCCOCCNC(=O)COCCOCCNC(=O)COCCOCCNC(=O)COCCOCCNC(=O)CNC(=O)[C@H](CCCCN)NC(=O)[C@H](CCC(=O)O)NC(=O)[C@H](CCCCN)NC(=O)[C@H](CCC(=O)O)NC(=O)[C@H](CCCCN)NC(=O)[C@H](CCC(=O)O)NC(=O)CC[C@H](NC(=O)CCCCCCCCCCCCCCCCCCC(=O)O)C(=O)O)CSCSC[C@@H](C(=O)N2CCC[C@H]2C(=O)N[C@@H](CO)C(=O)N[C@@H](Cc2ccccc2)C(=O)N[C@@H](CCCNC(=N)N)C(=O)N[C@@H](Cc2c[nH]cn2)C(=O)NCC(=O)N[C@@H](CO)C(=O)N2CCC[C@H]2C(=O)N[C@@H](CO)C(=O)N[C@@H](CO)C(=O)NCC(=O)N[C@@H](C)C(=O)N2CCC[C@H]2C(=O)N2CCC[C@H]2C(=O)N2CCC[C@H]2C(=O)N[C@@H](CO)C(N)=O)NC(=O)CNC(=O)[C@H](CC(C)C)NC(=O)CNC(=O)[C@H](CO)NC(=O)[C@H](Cc2ccc(O)cc2)NC(=O)[C@H](Cc2c[nH]cn2)NC(=O)CNC1=O` [Example 113]: the EC50 was determined as 621 pM at human NPRA (setting [3]) and 149000 pM at rat NPRA (cGMP Assay (EC50, pM) w/BSA rNPRA, assay buffer with 0.1% BSA).

As for “{C20 diacid-γGlu}-EKEKEKGS[4Pal]RRSSCFGGRIDRIGHQSGLGCPSFRHGGKSSGAPPPS-NH2 (linker 14-30 via CH2) [Example 67]”, the EC50 came out at 1220 pM at human NPRA (setting [1]) and 18800 pM at rat NPRA (setting [4]).

In the case of “{C20 diacid-γGlu}-EKEKEKG[AEEA][AEEA][AEEA][AEEA][AEEA][AEEA]EK[βAla]RSSCFGKRIDRIGHQSGLGCPSFRHGSPSSGAPPPS-NH2 (linker 20-36 via CH2) [Example 119]”, the EC50 at human NPRA (setting [1]) amounted to 493 pM; at rat NPRA (setting [4]) it was 17900 pM.

(Values after patent US20240174727A1, “LONG-ACTING NATRIURETIC PEPTIDES AND USES THEREOF” (Eli Lilly and Company, priority 2022, published 2024).)
